Key:
normal human plasma [1] = assay: APTT clotting assay, normal human plasma; format: biochemical
Protocol: (§1) For the PT assay, thromboplastin-D was reconstituted according to the manufacturer’s directions and warmed to 37 °C. […] After incubation for 4 min at 37 °C, clotting was initiated by adding 100 μL of prewarmed 25 mM CaCl2 and the time to clotting was noted. […] To determine the in vitro effect on the APTT of deficient human plasmas, the APTT assay was repeated, using human plasmas deficient of factor VII (FVII), factor IX (FIX), FXI, or factor XII (FXII). […] The positive control used in APTT and PT assays was rivaroxaban, a clinically used FXa inhibitor. Under the conditions reported, rivaroxaban doubled the APTT and PT at concentrations of 0.123 ± 0.003 µM and 0.193 ± 0.043 µM, respectively.

normal human plasma [2] = details: cited from earlier work
normal human plasma [3] = assay: PT clotting assay, normal human plasma; format: biochemical; details: normal human plasma (text)
Protocol: as §1

| SMILES | effect on the APTT (normal human plasma [1]; normal human plasma, highest concentration tested of 33.3 mM) | concentration to double the APTT (normal human plasma [1]; normal human plasma (text)) | effect on TT (normal human plasma [2]) | concentration to double the PT (normal human plasma [3]) |
| --- | --- | --- | --- | --- |
| O=S(=O)(O)CCO [isethionic acid] | did not affect the APTT | – | – | – |
| O=C(NC[C@H]1CN(c2ccc(N3CCOCC3=O)cc2)C(=O)O1)c1ccc(Cl)s1 [rivaroxaban] | – | 0.123 ± 0.003 µM | no effect on TT | 0.193 ± 0.043 µM |
